The conditions of data set [1]: human, plasma.
Data set [2] deals with endoproteinase Glu-C (Endo Glu-C) (Staphylococcus aureus, UniProt P0C1U8). To be noted: pH 8.
The target of a further data set is P/Q type Ca channels (Rattus norvegicus, UniProt P54282). Type of data set: binding.
For data set [3], the target named is T1, N-type voltage-sensitive calcium channels (Rattus norvegicus, UniProt Q02294).
T1 construct: Rats were sacrificed by cervical dislocation and their brains removed and immediately frozen in liquid nitrogen; from tissue; host or cells: rat brain membrane
T1 sequence (Q02294 whole entry, looked up): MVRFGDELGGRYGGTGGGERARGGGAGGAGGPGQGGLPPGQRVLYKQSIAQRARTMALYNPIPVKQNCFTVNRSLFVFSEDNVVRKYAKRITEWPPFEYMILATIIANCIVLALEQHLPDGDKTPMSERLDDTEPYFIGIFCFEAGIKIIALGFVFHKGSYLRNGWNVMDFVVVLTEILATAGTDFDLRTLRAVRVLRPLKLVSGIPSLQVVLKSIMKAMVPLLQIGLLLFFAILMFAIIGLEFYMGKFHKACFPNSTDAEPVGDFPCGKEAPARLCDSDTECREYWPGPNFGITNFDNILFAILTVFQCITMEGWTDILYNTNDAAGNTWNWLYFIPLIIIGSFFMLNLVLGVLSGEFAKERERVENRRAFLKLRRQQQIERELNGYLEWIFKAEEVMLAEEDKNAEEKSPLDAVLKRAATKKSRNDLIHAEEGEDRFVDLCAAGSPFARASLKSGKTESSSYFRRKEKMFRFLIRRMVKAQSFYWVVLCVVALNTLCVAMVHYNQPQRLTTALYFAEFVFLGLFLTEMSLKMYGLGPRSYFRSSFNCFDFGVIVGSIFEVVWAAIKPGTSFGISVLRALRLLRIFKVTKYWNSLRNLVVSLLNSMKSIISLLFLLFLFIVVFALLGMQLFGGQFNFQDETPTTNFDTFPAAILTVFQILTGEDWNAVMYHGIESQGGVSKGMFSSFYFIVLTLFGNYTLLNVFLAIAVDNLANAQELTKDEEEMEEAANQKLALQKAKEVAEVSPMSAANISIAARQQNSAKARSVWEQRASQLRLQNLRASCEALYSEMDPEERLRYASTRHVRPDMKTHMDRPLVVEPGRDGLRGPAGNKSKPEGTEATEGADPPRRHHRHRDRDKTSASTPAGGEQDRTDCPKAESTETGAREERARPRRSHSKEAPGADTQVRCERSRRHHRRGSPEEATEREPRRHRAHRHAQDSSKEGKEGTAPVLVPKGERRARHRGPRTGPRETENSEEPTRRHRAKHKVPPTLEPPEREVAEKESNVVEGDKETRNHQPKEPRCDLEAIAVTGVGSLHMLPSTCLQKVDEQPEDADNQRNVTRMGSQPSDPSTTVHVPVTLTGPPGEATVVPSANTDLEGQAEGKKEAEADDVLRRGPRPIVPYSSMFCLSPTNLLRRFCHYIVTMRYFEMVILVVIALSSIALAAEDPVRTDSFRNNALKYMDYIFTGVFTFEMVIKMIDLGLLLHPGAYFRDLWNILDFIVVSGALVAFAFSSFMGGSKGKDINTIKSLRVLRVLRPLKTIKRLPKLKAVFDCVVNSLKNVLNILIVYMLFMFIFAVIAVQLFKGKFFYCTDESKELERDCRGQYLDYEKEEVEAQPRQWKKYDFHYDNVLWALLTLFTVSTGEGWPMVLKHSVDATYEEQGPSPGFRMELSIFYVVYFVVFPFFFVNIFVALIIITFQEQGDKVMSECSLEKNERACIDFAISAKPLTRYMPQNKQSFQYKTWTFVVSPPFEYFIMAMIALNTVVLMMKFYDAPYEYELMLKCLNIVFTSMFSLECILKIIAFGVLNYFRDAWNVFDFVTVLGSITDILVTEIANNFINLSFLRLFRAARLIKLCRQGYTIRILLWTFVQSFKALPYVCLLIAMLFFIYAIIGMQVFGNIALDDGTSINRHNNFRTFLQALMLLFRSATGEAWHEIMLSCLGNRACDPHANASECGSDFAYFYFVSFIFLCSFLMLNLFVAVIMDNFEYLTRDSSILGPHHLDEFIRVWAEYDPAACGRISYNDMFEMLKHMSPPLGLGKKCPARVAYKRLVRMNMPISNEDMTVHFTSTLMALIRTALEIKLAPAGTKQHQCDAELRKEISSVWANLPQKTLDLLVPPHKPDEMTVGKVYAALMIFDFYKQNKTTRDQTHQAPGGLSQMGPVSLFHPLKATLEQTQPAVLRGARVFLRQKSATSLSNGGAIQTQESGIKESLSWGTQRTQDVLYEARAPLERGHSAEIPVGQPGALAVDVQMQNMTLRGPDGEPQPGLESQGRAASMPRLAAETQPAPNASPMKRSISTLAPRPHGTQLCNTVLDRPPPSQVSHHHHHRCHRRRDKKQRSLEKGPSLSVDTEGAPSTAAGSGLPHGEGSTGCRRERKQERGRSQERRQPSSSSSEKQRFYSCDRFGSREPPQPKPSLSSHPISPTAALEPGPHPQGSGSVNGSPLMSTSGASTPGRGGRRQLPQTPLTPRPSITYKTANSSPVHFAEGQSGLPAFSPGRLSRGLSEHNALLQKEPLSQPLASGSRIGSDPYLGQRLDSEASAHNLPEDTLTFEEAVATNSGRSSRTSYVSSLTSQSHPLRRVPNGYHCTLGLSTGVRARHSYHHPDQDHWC
Type of data set: binding.

Data set [4] concerns bovine adrenal chromaffin cells. It is filed as cell-based.
The target in data set [5] is human noradrenaline transporter (NET) (human) (UniProt P23975). The experiment in a line: displacement of [3H]nisoxetine from COS-7 hNET membranes. (Displacement assays read how much labelled ligand stays bound in the presence of the test substance.)
human noradrenaline transporter (NET) (human), sequence (P23975 whole entry): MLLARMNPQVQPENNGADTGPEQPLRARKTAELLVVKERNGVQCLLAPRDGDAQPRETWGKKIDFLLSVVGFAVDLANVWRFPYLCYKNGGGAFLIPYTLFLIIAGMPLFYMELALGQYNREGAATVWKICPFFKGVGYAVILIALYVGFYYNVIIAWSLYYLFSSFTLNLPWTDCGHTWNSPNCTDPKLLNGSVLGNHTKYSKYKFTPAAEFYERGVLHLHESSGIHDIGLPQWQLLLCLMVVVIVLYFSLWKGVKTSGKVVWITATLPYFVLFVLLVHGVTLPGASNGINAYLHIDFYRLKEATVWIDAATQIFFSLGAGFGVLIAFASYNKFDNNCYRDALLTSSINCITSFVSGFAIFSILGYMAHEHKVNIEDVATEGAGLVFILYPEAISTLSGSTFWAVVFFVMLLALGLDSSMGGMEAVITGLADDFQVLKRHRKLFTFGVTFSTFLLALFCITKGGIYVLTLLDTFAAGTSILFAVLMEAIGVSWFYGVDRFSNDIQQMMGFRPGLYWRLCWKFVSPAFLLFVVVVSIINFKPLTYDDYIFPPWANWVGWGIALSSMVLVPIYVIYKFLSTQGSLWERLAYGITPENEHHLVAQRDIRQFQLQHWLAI
For data set [6] the target is unchanged. The data set is described as above. This is another data set of the same source.
Data set [7] deals with N-type voltage-sensitive calcium channel (rat brain membrane) (rat) (UniProt Q02294).

The half-life is how long it takes for the measured level to halve. As usually defined, the EC50 is the concentration needed to bring the measured effect to its halfway point.

Read-outs that look alike come from different tables or passages of the source.

P/Q type Ca channels, sequence (P54282 whole entry, looked up): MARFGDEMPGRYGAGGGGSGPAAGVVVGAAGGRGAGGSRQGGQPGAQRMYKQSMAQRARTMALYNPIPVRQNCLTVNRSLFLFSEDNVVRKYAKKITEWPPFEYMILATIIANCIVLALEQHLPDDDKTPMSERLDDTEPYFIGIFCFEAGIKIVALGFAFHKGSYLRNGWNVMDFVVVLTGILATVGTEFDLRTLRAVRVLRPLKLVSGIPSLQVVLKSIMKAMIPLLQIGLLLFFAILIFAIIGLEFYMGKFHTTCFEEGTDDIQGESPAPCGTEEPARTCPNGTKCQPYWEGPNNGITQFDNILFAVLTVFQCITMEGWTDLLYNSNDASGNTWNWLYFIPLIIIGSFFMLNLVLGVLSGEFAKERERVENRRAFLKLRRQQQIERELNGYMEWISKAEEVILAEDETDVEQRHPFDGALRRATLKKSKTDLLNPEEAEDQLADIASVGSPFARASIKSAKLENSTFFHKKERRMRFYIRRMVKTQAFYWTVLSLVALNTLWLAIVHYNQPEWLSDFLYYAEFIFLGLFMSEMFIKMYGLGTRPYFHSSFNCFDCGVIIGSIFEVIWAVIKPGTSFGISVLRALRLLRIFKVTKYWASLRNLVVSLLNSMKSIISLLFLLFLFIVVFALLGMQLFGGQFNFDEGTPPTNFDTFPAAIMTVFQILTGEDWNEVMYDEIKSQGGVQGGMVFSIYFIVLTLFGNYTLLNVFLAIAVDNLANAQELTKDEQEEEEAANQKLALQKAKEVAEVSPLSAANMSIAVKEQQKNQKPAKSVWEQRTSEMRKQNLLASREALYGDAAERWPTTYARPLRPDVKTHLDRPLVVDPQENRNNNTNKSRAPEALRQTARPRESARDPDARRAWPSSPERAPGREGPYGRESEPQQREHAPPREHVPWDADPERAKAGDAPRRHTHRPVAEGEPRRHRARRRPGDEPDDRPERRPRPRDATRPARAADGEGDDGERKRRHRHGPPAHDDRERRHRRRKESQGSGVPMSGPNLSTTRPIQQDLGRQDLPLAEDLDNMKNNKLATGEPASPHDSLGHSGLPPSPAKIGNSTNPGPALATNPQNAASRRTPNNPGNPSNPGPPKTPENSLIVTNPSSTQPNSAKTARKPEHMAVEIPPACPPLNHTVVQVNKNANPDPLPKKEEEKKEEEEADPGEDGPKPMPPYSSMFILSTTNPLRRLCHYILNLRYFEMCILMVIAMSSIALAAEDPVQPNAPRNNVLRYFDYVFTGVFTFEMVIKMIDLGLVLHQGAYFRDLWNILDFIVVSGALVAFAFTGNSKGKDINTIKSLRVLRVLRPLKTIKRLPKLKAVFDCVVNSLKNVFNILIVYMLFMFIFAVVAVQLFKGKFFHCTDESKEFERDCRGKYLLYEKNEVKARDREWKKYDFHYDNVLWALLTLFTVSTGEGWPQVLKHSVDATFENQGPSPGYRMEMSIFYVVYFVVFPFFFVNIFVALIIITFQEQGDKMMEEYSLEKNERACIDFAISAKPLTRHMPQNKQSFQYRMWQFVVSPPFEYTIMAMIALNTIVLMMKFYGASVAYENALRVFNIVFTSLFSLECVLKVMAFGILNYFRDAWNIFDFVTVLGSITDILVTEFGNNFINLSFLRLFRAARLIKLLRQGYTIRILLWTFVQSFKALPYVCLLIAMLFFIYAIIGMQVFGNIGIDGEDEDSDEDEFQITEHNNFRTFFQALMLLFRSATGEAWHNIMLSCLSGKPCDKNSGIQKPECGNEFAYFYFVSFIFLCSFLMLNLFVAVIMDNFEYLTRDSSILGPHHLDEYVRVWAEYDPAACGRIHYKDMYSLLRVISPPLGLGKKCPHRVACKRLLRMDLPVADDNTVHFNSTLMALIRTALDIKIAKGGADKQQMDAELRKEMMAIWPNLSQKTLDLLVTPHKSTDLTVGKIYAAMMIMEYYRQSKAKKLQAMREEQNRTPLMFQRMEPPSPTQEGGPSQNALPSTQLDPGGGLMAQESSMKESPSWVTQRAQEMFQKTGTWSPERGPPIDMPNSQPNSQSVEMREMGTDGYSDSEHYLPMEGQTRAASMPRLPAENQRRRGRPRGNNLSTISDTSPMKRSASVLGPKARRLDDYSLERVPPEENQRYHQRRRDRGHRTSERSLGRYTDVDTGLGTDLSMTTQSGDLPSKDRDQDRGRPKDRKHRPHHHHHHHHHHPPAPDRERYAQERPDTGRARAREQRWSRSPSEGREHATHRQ

For the compound `CC(C)C[C@@H]1NC(=O)[C@H](CC(N)=O)NC(=O)[C@H](CO)NC(=O)[C@H](Cc2cnc[nH]2)NC(=O)[C@H](CCC(=O)O)NC(=O)[C@H](CC(C)C)NC(=O)[C@H](Cc2cnc[nH]2)NC(=O)[C@@H]2CSSC[C@H](NC(=O)CN)C(=O)N[C@@H](CSSC[C@@H](C(N)=O)NC1=O)C(=O)N[C@@H](CO)C(=O)N[C@@H](CC(N)=O)C(=O)N1CCC[C@H]1C(=O)N[C@@H](C(C)C)C(=O)N2` [MII, α-conotoxin MII], the half-life in data set [1] was ~16 h; in data set [2] it was ~10 h. In the case of “CKGKGAKCSRLMYDCCTGSCRSGKCTRNG [cyclo-MVIIA 2]”, on P/Q type Ca channels, the “ability to displace 125I-MVIIC” value is “did not show any ability to displace” and the “selectivity N-type over P/Q-type channel” value is on record as “selectivity for the N-type channel over the P/Q-type channel”.

For “CKGKGAKCSRLMYDCCTGSCRSGKCTRNGLPG [cyclo-MVIIA 1]”, the EC50 in data set [3] came to 85 nM. On the same count and under the same terms, the value for “GLPVCKGKGAKCSRIMYDCCTGSCRSGKCTRG [SEQ ID NO. 7]” was 1.08 nM.

Take “Gly Cys Cys Ser Asp Pro Arg Cys Asn Tyr Asp His Pro Glu Ile Cys Gly Gly Ala Ala Gly Gly [cVc1.1-6]”: the “inhibition of nicotine-evoked catecholamine release, activity relative to Vc1.1” value in data set [4] is on record as “identical, within experimental error, to that of acyclic Vc1.1”. “[Sec5,10]MrIA-NH2 (peptide; other documents disagree on this pair)”: in data set [5], the EC50 worked out at 1380 nM and the log EC50 is -5.86. For “χ-conotoxin MrIA-NH2 (peptide; other documents disagree on this pair)”, in data set [6], the EC50 worked out at 1470 nM. For the same compound, in data set [5], the EC50 worked out at 1810 nM and the log EC50 is -5.74. Consider ω-conotoxin MVIIA (peptide), for which the EC50 in data set [7] was 0.044 nM.
